# In patent US20080269106A1, “Methods and Compositions for Diagnosis and Treatment of Disorders Involving Macrophages” (priority 2005, published 2008):
# d = 2'-deoxy (DNA); r = 2'-OH (RNA)
# T1: androgen receptor (AR) (Homo sapiens, UniProt P10275)
# T1 construct: Nuclear microinjection studies were performed in RWPE1 cells using a Prostate Specific Antigen (PSA) promoter/reporter construct; endogenous in cells; host or cells: RWPE1 prostate cells
# T1 sequence (P10275 1-920): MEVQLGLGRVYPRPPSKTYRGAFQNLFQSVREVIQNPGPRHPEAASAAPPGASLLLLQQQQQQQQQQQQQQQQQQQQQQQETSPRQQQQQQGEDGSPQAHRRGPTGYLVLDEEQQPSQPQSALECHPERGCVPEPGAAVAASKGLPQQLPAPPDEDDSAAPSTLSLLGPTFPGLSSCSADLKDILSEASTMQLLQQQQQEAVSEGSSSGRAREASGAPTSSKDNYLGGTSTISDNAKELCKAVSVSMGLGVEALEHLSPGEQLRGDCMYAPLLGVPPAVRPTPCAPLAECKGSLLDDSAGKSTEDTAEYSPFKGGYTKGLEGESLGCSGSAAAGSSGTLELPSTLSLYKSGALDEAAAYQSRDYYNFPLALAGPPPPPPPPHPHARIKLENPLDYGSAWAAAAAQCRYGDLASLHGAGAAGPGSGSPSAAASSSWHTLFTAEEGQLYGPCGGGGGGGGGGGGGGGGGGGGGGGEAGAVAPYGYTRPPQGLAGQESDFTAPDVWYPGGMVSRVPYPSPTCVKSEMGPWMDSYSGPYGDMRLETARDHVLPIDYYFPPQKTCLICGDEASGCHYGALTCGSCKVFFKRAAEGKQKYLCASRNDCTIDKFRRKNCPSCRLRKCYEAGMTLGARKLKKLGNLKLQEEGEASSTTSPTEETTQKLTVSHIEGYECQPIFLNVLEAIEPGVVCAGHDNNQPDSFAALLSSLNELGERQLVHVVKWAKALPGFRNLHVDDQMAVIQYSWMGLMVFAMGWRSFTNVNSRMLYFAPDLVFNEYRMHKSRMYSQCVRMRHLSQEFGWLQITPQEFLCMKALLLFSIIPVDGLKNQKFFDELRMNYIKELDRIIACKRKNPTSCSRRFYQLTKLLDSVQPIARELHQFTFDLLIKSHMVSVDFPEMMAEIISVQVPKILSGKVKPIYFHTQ
# T2: ERα (Homo sapiens, UniProt P03372)
# T2 sequence (P03372 1-595): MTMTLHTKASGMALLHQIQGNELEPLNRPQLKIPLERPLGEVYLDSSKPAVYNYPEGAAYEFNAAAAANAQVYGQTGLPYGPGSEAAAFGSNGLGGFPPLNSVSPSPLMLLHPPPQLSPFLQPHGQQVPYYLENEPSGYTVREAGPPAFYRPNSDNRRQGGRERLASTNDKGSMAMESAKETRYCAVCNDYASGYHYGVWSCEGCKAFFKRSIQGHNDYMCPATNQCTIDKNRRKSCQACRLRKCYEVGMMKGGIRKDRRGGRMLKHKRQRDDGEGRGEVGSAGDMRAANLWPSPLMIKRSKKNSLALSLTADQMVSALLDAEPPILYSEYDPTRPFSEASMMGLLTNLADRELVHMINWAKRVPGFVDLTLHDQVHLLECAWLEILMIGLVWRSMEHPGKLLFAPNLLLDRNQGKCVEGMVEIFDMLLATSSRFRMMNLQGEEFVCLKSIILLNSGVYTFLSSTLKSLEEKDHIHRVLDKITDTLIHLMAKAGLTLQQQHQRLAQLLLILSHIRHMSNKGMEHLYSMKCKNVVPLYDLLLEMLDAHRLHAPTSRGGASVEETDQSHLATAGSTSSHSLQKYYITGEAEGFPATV
# T3: endogenous TAB2 (UniProt Q9NYJ8 1-693)
# T3 construct: Endogenous protein, detected with anti-TAB2 IgG
# T3 sequence (looked up): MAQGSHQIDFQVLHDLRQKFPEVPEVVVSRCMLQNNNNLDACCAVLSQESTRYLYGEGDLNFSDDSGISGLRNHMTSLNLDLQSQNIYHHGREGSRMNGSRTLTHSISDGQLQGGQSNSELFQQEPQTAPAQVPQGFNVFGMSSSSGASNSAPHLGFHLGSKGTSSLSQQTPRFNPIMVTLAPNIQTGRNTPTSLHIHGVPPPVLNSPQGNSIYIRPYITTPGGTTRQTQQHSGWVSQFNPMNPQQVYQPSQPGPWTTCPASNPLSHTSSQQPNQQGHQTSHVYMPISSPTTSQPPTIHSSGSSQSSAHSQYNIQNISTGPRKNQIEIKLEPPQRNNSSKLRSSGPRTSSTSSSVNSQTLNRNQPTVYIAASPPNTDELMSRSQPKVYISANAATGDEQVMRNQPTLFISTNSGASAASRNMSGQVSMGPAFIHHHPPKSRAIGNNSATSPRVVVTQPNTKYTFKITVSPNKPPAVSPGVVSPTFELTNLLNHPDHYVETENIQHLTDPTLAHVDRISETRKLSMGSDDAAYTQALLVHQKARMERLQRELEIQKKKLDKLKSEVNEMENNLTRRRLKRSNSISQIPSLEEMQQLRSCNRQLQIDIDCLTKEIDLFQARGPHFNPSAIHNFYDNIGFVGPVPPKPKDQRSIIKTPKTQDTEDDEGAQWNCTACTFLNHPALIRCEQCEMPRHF
# What was measured:
# [1] = biological target: estrogen receptor-α (ERα) (Homo sapiens, UniProt P03372); details: cells null for either MEKK1 or TAB2
# From the text: Wild-type MEKK1, C478A MEKK1 (mutant of ubiquitin ligase activity), or D1369A MEKK1 (mutant of kinase activity) was used to rescue IL-1β-dependent activation of the pS2 promoter by 4-OHT in MEFs from MEKK−/− mice.
# androgen receptor (AR) [2] = biological target: T1, androgen receptor (AR); assay: ARE-dependent lacZ reporter, single cell nuclear microinjection; type: cell-based; details: presence of bicalutamide
# Procedure: Specific IgGs against AR, N-CoR, TAB2, HDAC3, HDAC2, HDAC1, Sin3, or MBD3 were used to immunoprecipitate protein-bound DNA fragments. […] The bound material was eluted and divided into several aliquots, and re-immunoprecipitated with antibodies as shown (2nd IP).
# Cells were stained with antibodies directed against the N-CoR, and the fluorescence-conjugated secondary antibody was visualized using deconvoluting microscopy. Merged images with nuclear staining with DAPI are shown. […] 5 ng/ml of leptomycin B (LMB), a nuclear export inhibitor, was also used for 30 min followed by treatment with 10 ng/ml of IL-1β.
# [3] = system: RARα fusion proteins (AR-N′/RAR, ER-N′/RAR); assay: RARα-dependent reporter with AR-N'/RAR and ER-N'/RAR fusion receptors, single cell microinjection; type: cell-based
# BMP7 = assay: Semi-quantitative RT-PCR of BMP7 in MCF-7 breast cancer cells; type: cell-based; details: MCF-7 cells
# Procedure: Semi-quantitative RT-PCR was carried out as described (Zhu et al, 2004). Primers were: […]
# (§1) Actin was used as the loading control. […] A BMP7 promoter-controlled LacZ reporter and an ERα expression plasmid were injected into cells. […] Wild-type ERα and Erα (E203A/G204A) were cotransfected with the reporter in 293 cells. […] Primer pair #1 flanks two putative ERE half-sites, and primer pair #2 (control) flanks a region ˜3 kb upstream of #1.
# This is particularly relevant in light of the fact that a key aspect of reproductive regulation, blastocyst implantation, involves a local induction of BMP7 in response to inflammatory signals (Monroe et al., 2000; Paria et al., 2001).
# androgen receptor (AR) [4] = biological target: T1, androgen receptor (AR); assay: PSA promoter reporter, single cell nuclear microinjection in RWPE1 cells; type: cell-based; details: for effect on IL-1β-mediated activator function of bicalutamide: 14mer peptide microinjected, PSA promoter- or ARE-dependent reporters
# From the text: One representative of three independent experiments is shown.
# ERα [5] = biological target: T2, ERα; assay: BMP7 promoter-controlled LacZ reporter, single cell nuclear microinjection in Rat-1 cells; type: cell-based; parameters: expressed in transfected cells; host or cells: Rat-1 cells; details: added to E2
# Procedure: as §1
# ERα [6] = biological target: T2, ERα; assay: Luciferase reporter driven by human BMP7 proximal promoter in 293 cells; type: cell-based; parameters: expressed in transfected cells; host or cells: 293 cells; details: combination of E2 and IL-1β
# Procedure: as §1
# endogenous TAB2 = biological target: T3, endogenous TAB2; assay: 2-step ChIP co-occupancy
molecule,measurement,setting,value
4-OH tamoxifen [4-OHT],IL-1β-dependent conversion to activator of ERα,[1],failed to occur
"5′-GCACCGAAGUAUUGUCCAAdTdT-3′ (sense GCACCGAAGUAUUGUCCAATT; antisense UUGGACAAUACUUCGGUGCTT; siRNA; sugars from the 5' end r19 d2, backbone not given here) [N-CoR siRNA]",effect on bicalutamide-dependent repression of ARE reporter,androgen receptor (AR) [2],switch from repression to activation
"C[C@]12CCC(=O)C[C@@H]1CC[C@@H]1[C@@H]2CC[C@]2(C)[C@@H](O)CC[C@@H]12 [DHT, Dihydrotestosterone]",activation of chimeric RARα,[3],neither E2 nor DHT exerted activation effects
"C[C@]12CC[C@@H]3c4ccc(O)cc4CC[C@H]3[C@@H]1CC[C@@H]2O [E2, 17-β-estradiol]",BMP7 transcript levels,BMP7,decreased levels of BMP7 transcripts
same,activation of chimeric RARα,[3],neither E2 nor DHT exerted activation effects
DIASEASTMQAAQQ [mutated AX7AA (SEQ ID NO:26) sequence],effect on IL-1β-mediated activator function of bicalutamide,androgen receptor (AR) [4],failed to inhibit induction
DILSEASTMQLLQQ [14mer synthetic peptide encompassing the AR LX7LL motif],effect on IL-1β-mediated activator function of bicalutamide,androgen receptor (AR) [4],specifically blocked
same,effect on macrophage-induced agonistic switch of bicalutamide,"androgen receptor (AR) [4]; peptide microinjected into RWPE1 cells pre-treated with TNFα, THP-1 macrophages, PSA promoter-dependent reporter",blocked
"IL-1β: human IL-1β from Calbiochem, pro-inflammatory cytokine",effect on E2 inhibition of BMP7 transcripts,BMP7; added to E2,blocked this inhibition
same,expression of hBMP-7 promoter-controlled reporter on addition to E2,ERα [5],actively increased expression over the baseline
same,"hBMP7 proximal promoter reporter activity, combination with E2",ERα [6],restored the reporter activity to the baseline
"wild-type RARα (receptor, UniProt P10276 1-462, looked up, also called retinoic acid receptor) MASNSSSCPTPGGGHLNGYPVPPYAFFFPPMLGGLSPPGALTTLQHQLPVSGYSTPSPATIETQSSSSEEIVPSPPSPPPLPRIYKPCFVCQDKSSGYHYGVSACEGCKGFFRRSIQKNMVYTCHRDKNCIINKVTRNRCQYCRLQKCFEVGMSKESVRNDRNKKKKEVPKPECSESYTLTPEVGELIEKVRKAHQETFPALCQLGKYTTNNSSEQRVSLDIDLWDKFSELSTKCIIKTVEFAKQLPGFTTLTIADQITLLKAACLDILILRICTRYTPEQDTMTFSDGLTLNRTQMHNAGFGPLTDLVFAFANQLLPLEMDDAETGLLSAICLICGDRQDLEQPDRVDMLQEPLLEALKVYVRKRRPSRPHMFPKMLMKITDLRSISAKGAERVITLKMEIPGSMPPLIQEMLENSEGLDTLSGQPGGGGRDGGGLAPPPGSCSPSLSPSSNRSSPATHSP",binding result,endogenous TAB2,no binding
